{
  "source": "patent US8828678B2",
  "about": "“Self-immolative probes for enzyme activity detection” (Enzo Life Sciences, Inc., priority 2010, dated 2014)",
  "test": "Chemical reduction of CD-8 and enzymatic (HRP) luminescence testing of the reduction product",
  "settings": "200 μM CD-8, 1 mM sodium hydrosulfite, 1 hour room temperature, then H2O2, 4-iodophenol",
  "experimental": "100 μl of 200 μM CD-8 (dissolved in 1×PBS buffer) with (1 mM) or without sodium hydrosulfite was incubated in a 96 black microplate (Greiner®) at room temperature for 1 hour. Also included was a positive control of 100 μl of 50 μM of isoluminol dissolved in 1×PBS buffer. A 4:1 volumetric mixture (1.25 μL) of stabilized H2O2 (Roche Diagnotics GmbH: Reference number: 11 582 950 001, component 2) and 200 mM of 4-idophenol was then added. Before adding horseradish peroxidase (HRP), the background luminescence was recorded; after adding 2 μL of 50 μM HRP, the luminescence was immediately recorded on a Biotek® plate reader.",
  "data": [
    {"smiles": "O=C(Nc1ccc2c(=O)[nH][nH]c(=O)c2c1)OCc1ccc([N+](=O)[O-])cc1", "note": "[CD-8]", "values": [
      {"measurement": "luminescence / release of isoluminol after sodium hydrosulfite", "value": "triggering the self-immolative release of isoluminol"}
    ]}
  ]
}
